Source: US20040180855A1, “Methods of treating thrombosis with reduced risk of increased bleeding times” (priority 2003, published 2004)
Like-named read-outs stand apart in the source and are kept apart here.

Key:
Human FXIa = target: T1, Human FXIa (Homo sapiens, UniProt P03951); assay: FXIa enzymatic activity (chromogenic S-2366; fluorescent assay for high potency); assay type: biochemical
T1 construct: purchased Enzyme Research Labs or Haematologic Technologies Inc
Method: Human FXIa activity (Enzyme Research Labs or Haematologic Technologies Inc.) was measured at room temperature in 96 well microtiter plates. The enzyme was incubated with drug for 3 minutes at an enzyme concentration of 0.5 nM in 145 mM NaCl, 5 mM KCl, 1 mg/mL PEG 8000,30 mM HEPES (pH 7.4). After the three minute incubation, 100 μM substrate, S-2366, (L-Pyroglut-Pro-Arg-pNA, Diapharma Group, Inc.) was added and the enzyme velocity was measured using a Molecular Devices Spectro Max Plus (405 nm wavelength) in kinetic mode and analyzed using SOFTmax Pro (ver 3.0) software. For routine compound evaluation, the fraction of control activity (FCA) was plotted as a function of the inhibitor concentration (I), and the curve was fit to the equation FCA /(1+[I]/IC50) to determine the IC50.
A fluorescent assay was performed under similar conditions to evaluate FXIa activity of compounds with high potency (IC50<10 nM). A different substrate (D-Ile-Pro-Arg-AFC.2TFA) and a different concentration of enzyme (0.043 nM) was used. The enzyme velocity was measured using a Molecular Devices fMax fluorescent plate reader (400 nm excitation, 505 nm emission).

[1] = tested on: thrombosis and bleeding time in anesthetized rats; assay: Differential effect on thrombosis inhibition and bleeding time prolongation (FIG. 7); assay type: in vivo, rat; settings: versus thrombin and FXa inhibitors (16A, 16B)
Method: FIG. 7 reports an analysis of the differential effect on thrombosis inhibition and bleeding time prolongation in anesthetized rats for the Factor XIa inhibitor, as compared with the “direct acting” thrombin and FXa active site inhibitors, namely, compounds 16A and 16B (thrombin and FXa active site inhibitors). The thrombin inhibitor (open symbols), FXa inhibitor (dotted symbols) and FXIa inhibitor (line symbols) were tested for effects on arterial thrombosis (squares), venous thrombosis (triangles) and bleeding time (circles) in rat models. Compounds were administered as loading plus sustaining infusion and the total dose is given on the x-axis.

T1 sequence (P03951 388-625 limits assumed): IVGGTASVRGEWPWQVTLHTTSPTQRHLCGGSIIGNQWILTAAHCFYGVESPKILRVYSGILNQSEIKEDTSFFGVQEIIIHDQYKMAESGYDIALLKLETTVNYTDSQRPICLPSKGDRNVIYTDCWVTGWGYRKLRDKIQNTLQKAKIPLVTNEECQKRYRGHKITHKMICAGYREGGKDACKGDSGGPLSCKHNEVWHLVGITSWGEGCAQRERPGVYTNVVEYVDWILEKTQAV
T1 sequence (P03951 19-387 partner limits assumed): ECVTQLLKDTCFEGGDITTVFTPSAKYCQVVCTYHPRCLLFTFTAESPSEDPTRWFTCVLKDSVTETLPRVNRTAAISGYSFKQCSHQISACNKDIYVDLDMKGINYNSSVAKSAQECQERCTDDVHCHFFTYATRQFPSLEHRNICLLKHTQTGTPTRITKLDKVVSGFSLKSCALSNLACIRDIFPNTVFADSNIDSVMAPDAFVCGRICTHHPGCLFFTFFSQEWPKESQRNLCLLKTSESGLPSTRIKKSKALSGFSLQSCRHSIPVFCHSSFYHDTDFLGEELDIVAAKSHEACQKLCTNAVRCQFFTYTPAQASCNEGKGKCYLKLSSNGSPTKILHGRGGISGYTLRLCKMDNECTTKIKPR

## CC(C)(C)NC(=O)N1CCN(C(=O)N2C(=O)[C@H](CCCNC(=N)N)[C@H]2C(=O)O)CC1 [Example 4]
Human FXIa; Table 1, Factor XIa, approximate, read-out: IC50(≅)
  IC50: ~0.0028 µM
Human FXIa; Table 3, read-out: IC50 (μM) FXIa
  IC50: 0.0028 µM
Human FXIa; from Table 3 IC50 values
  times more active than the FXa inhibitor for inhibiting Factor XIa: more than 10,000 times
  times more active than the thrombin inhibitor (compound 16A) for inhibiting Factor XIa: greater than 2,000 times
[1]
  separation between bleeding time prolongation and efficacy in venous and arterial thrombosis: substantially greater separation
